Test results as given in paper PMC7238042, “π-π-Stacked Poly(ε-caprolactone)-b-poly(ethylene glycol) Micelles Loaded with a Photosensitizer for Photodynamic Therapy” (Pharmaceutics, 2020).
Like-named read-outs stand apart in the source and are kept apart here.

What was measured:
[1] = Side effects after i.v. administration in mice; format: in vivo, Balb/c nude mice
A431 cells = test system: A431 cells; design: method as in PMID 32142290; conditions: same conditions, cited from earlier work
HeLa cells = test system: HeLa cells; design: method as in PMID 32142290; conditions: cited from earlier work
cells = test system: cells; design: method as in PMID 32142290; conditions: cited from earlier work
in vivo [2] = conditions: female, Balb/c nude, mouse, plasma, iv, 300 ug/kg
Description: (§1) Mice were inoculated with 1 × 10^6 A431 cells suspended in 100 μL PBS subcutaneously into the right flank. […] Tumors were measured using a digital caliper. The tumor volume V (in mm^3) was calculated using the equation V = (π/6)LS^2, in which L is the largest and S is the smallest superficial diameter [30].
(§2) For the latter, mice were killed through cervical dislocation while under deep isoflurane anesthesia. […] The plasma supernatant was collected, extracted using acetonitrile/DMSO (4:1, v/v), and analyzed by high-performance liquid chromatography (HPLC) and a LI-COR Odyssey imaging system to quantify the amount of mTHPC and Cy7-labeled micelles, respectively, as previously described [38]. Plasma concentration curves were analyzed by non-compartmental analysis with the PKSolver add-in for Microsoft Excel [40].

in vivo [3] = conditions: female, Balb/c nude, mouse, intravenous, 0.3 mg/kg
Description: as §1
(§3) Tumors and a panel of organs (spleen, liver, lung, heart, kidney, skin, femur, and brain) were excised and imaged ex vivo by 2D fluorescence reflectance imaging (FRI) using a Pearl Trilogy imager from LI-COR and then stored at −80 °C until further processing for quantification. Organs and tumors from three untreated animals were used as controls.
(§4) To quantify the content of mTHPC and micelles in the tumors and the different organs, the excised tissue samples were treated as follows. First, 100 μL of RIPA lysis buffer was added to 100 mg of sliced tissues or organs. The mixture was homogenized by a tissue grinder (Percellys 24) at a speed of 6000/s for 60 s (for femur samples, 6000/s for 180 s) and the homogenate was subsequently aliquoted. To determine the mTHPC concentration in the samples, 1 volume of an aliquot of the homogenate (30 μL) was mixed with 120 μL of acetonitrile/DMSO (4:1 v/v) and vortexed for 1 min. The mixture was then centrifuged at 15,000× g for 10 min. Next, 50 μL of the obtained supernatant was injected into the HPLC system consisting of a Waters X Select Charged Surface Hybrid (CSH) C18 3.5 μm 4.6 × 150 mm column coupled with a fluorescence detector set at λex 420 nm and λem 650 nm to analyze mTHPC concentration [38]. The mobile phase was 0.1 % trifluoroacetic acid in acetonitrile/water (60:40, v/v) at a flow rate of 1 mL/min. The measuring range was from 0.005 to 4 μg/mL and the detection limit was 5 ng/mL. Calibration curves were obtained from a series of standard solutions of mTHPC in DMSO, to which 45 μL of the corresponding homogenized tissue samples obtained from control mice (i.e., not treated with any formulations) was added, followed by mTHPC extraction using acetonitrile/DMSO (4:1, v/v) and HPLC analysis.
(§5) To determine the concentration of Cy7-labeled micelles in the tissue homogenates, 1 volume of another aliquot of the homogenate (30 μL) was vortex-mixed with 2 volumes of RIPA lysis buffer (60 μL) for 1 min. The fluorescence of Cy7 in the mixture (20 μL) was detected at the 800 nm channel (i.e., λex 785 nm and λem 820 nm), using a LI-COR Odyssey scanner imaging system, and a calibration curve was obtained using samples with different concentrations of Cy7-labeled copolymer in a mixture of RIPA buffer (1 volume) and the corresponding homogenized tumor or organ samples (2 volumes) obtained from non-treated mice.

[4] = Circulation kinetics in A431 tumor-bearing mice (plasma Cy7 and mTHPC); conditions: mTHPC detection, i.v. 300 µg mTHPC/kg
Description: as §1, §2

[5] = Biodistribution in A431 tumor-bearing mice (Cy7 fluorescence and mTHPC HPLC); conditions: 4 h
Description: as §1, §3, §4, §5

[6] = design: method as in PMID 25388924; conditions: cited from earlier work

Row | Compound | side effects after i.v. administration ([1]; 300 µg mTHPC/kg, free mTHPC in ethanol/propylene glycol/PBS 20:30:50, micelles ~1 mg polymer, also reported in ref 38) | loss of body weight ([1]; on average, within 24 h after i.v. injection) | EC50 (A431 cells; listed as free mTHPC) | EC50 (A431 cells) | EC50 (HeLa cells) | EC50 (HeLa cells; listed as free mTHPC) | mTHPC concentration toxic to cells without illumination (cells; after 7 h) | mTHPC concentration toxic to cells without illumination (cells; after 24 h) [µg/mL] | Vd (in vivo [2]) [L/kg] | clearance (in vivo [2]) [mL/min/kg] | tissue uptake at 4 h (in vivo [3]; liver) [%ID/g] | tissue uptake at 24 h (in vivo [3]; liver) [%ID/g] | tissue uptake at 24 h (in vivo [3]; tumor, kidney, heart, femur) [%ID/g] | AUC [4] [h*%] | Half-life Phase α ([4]; estimated from first hour) [min] | Half-life Phase β ([4]; non-compartmental analysis) [h] | total mTHPC accumulation in liver [5] | total mTHPC accumulation in spleen or lung [5] | quenching concentration ([6]; in aromatic-substituted thermosensitive micelles, 0.45 mg/mL polymer) [µg/mL] | quenching concentration ([6]; in corresponding non-aromatic micelles)
1 | Oc1cccc(-c2c3nc(c(-c4cccc(O)c4)c4ccc([nH]4)c(-c4cccc(O)c4)c4nc(c(-c5cccc(O)c5)c5ccc2[nH]5)CC4)C=C3)c1 [Free mTHPC, meta-tetra(hydroxyphenyl)chlorin] | tachypnea, passiveness immediately post-injection | ~ 1 g | ~ 1.5 µg/mL | 1.6 ± 0.1 [38] µg/mL | 1.2 [38] µg/mL | ~ 1.5 µg/mL | higher than 50 µg/mL | > 20 | 0.12 | 0.22 | ~15 | ~5 | 2 to 3 | 442 | ≤30 | 2.1 | ~ 15 % ID per liver | ~ 1 % ID per spleen or lung |  | 
2 | axially solketal-substituted silicon phthalocyanine [Si(sol)2Pc] |  |  |  |  |  |  |  |  |  |  |  |  |  |  |  |  |  |  | 16 | ~ 0.05 µg/mL
